Assay results as given in US6147095A (priority 1999, dated 2000).
Entries after “also recorded” stand apart in the source; their conditions may differ. Like-named read-outs stand apart in the source and are kept apart here. Each block holds one compound with its values, some of them ahead of it.

What was measured:
[1] = human, in vivo
Protocol: The drugs were then coadministered for 10 days, after which the pharmacokinetics of each were re-evaluated and compared with baseline data. The study was conducted in 14 healthy volunteers (13 males and 1 female) with a mean age of 29.9 years (range, 21.3-43.9 years), height of 174.4 cm (range, 162.6-185.4 cm), and weight of 76.5 kg (range, 65.1-88.2 kg). Twelve subjects were Caucasian and two were of African descent. Ten subjects completed all aspects of the study. Pharmacokinetic analyses were based on the results obtained in these subjects. […] Detection was by UV absorbance at 260 nm.

[2] = human, in vivo; remark: listed apart in the source
Protocol: A pharmacokinetic profile was obtained under steady-state conditions following 7 days of dosing. […] Forty-four subjects were Caucasian, 2 were Black, and 2 were Asian.
An aliquot (0.150 mL) was initially injected onto a short Zorbax® RX-C8 column which was connected via a column switching valve to the analytical column, Zorbax® RX-C8 column. The mobile phase was composed of acetonitrile:methanol:0.1% TFA in water, (40:35:25, v/v). Detection was by UV absorbance at 260 nm.
(§3) Pharmacokinetic parameters such as AUC, Cmax, tmax, oral clearance, and terminal half-life, were determined using standard noncompartmental techniques.

HIV = settings: reported for tipranavir; cited from earlier work
clinical [3] = settings: human, in vivo, po, CLPO (oral clearance)
Protocol: (§1) Baseline pharmacokinetic data for each drug were obtained under pharmacokinetic steady-state conditions following 7 days of dosing. Each drug was then co-administered for 10 days, at which time the pharmacokinetics of each was re-evaluated and compared with baseline data. […] All subjects were Caucasian. […] Pharmacokinetic analyses were based on results obtained in these subjects.
Detection was by UV absorbance at 260 nm.
(§2) Treatment effects on pharmacokinetic parameters were assessed using Wilcoxon's Signed Rank Test.

CYP3A [4] = assay: Enzyme induction; settings: previous studies / in vitro and in vivo data
[5] = Table 1; cited from earlier work
[6] = Tipranavir drug-drug interaction potential (Table 1); settings: with tipranavir
[7] = cited from earlier work
CYP3A [8] = settings: cited from earlier work
[9] = test system: cytochrome P450 3A (CYP3A); settings: known property; cited from earlier work
[10] = human, in vivo; remark: listed apart in the source
Protocol: as §1
Plasma samples were assayed for delavirdine concentrations using a validated, sensitive and specific isocratic high performance liquid chromatographic (HPLC) method: one for the upper concentration range, and one for the lower concentration range. […] The supernatant was mixed with buffer and directly injected. Chromatographic separation was achieved using a Brownlee cyano guard column and an analytical column, DuPont Zorbax® SB CN.
as §2

CYP3A [11] = settings: delavirdine 200, 300, and 400 mg TID, HIV-1 infected patients, serial erythromycin breath tests; cited from earlier work
CYP3A [12] = settings: Table 1; cited from earlier work
[13] = Study 2: pharmacokinetics of ritonavir co-administered with tipranavir in healthy volunteers; assay type: in vivo, human
Protocol: Both groups received their assigned dose of tipranavir continuously throughout the study period. […] The pharmacokinetics of tipranavir when coadministered with ritonavir were evaluated and compared with baseline data, while the ritonavir data were compared to historical data. The study was conducted in 19 healthy volunteers (16 males and 3 females) with a mean age of 30 years (range, 19-52 years), height of 177.1 cm (range, 162.6-190.5 cm), and weight of 76.7 kg (range, 57.3-95.0 kg). Eighteen subjects were Caucasian […]. […] Pharmacokinetic analyses were based on those subjects completing the baseline evaluation and at least one period of concomitant drug administration. […] Ritonavir and the internal standard (IS) were extracted from human plasma by liquid-liquid extraction with an ethyl acetate mixture.

clinical [14] = assay type: in vivo, human
Source text: The drugs were then coadministered for 10 days, after which the pharmacokinetics of each were re-evaluated and compared with baseline data. […] Twelve subjects were Caucasian and two were of African descent. Ten subjects completed all aspects of the study. Pharmacokinetic analyses were based on the results obtained in these subjects. […] Ritonavir and the internal standard (IS) were extracted from human plasma by liquid-liquid extraction with an ethyl acetate mixture.

[15] = Example 4: pharmacokinetics of ritonavir oral solution with tipranavir SEDDS in healthy volunteers
Protocol: (§4) A pharmacokinetic profile was obtained under steady-state conditions following 7 days of dosing.
(§5) After elution from the SPE, a C-18AR analytical column was used to perform the chromatographic separation: the mobile phase was a gradient of methanol and 25 mM ammonium acetate. […] Retention times were approximately 1.5 minutes.
as §3

[16] = human, in vivo; remark: listed apart in the source
Protocol: as §4, §5, §3

[17] = 200 mg BID with tipranavir 1250 mg BID vs ritonavir 500 mg BID alone

SMILES: Nc1ccn([C@@H]2CS[C@H](CO)O2)c(=O)n1 [3TC]
- Principal Route(s) of Elimination [5]: Excreted unchanged in urine

SMILES: Cc1cn([C@H]2C[C@H](N=[N+]=[N-])[C@@H](CO)O2)c(=O)[nH]c1=O [AZT]
- Potential for Clinically Significant Interaction [6]: Low
- Principal Route(s) of Elimination [5]: Conjugation/renal excretion

SMILES: O=C1Nc2ccc(Cl)cc2[C@@](C#CC2CC2)(C(F)(F)F)O1 [Efavirenz]
- CYP3A induction (CYP3A [12]): possible CYP3A inducer

SMILES: CC(C)(C)NC(=O)[C@@H]1CN(Cc2cccnc2)CCN1C[C@@H](O)C[C@@H](Cc1ccccc1)C(=O)N[C@H]1c2ccccc2C[C@H]1O [Indinavir]
- decrease of AUC by rifampin ([7]; Table 1, protease inhibitors): ~ 80%

SMILES: Cc1c(O)cccc1C(=O)N[C@@H](CSc1ccccc1)[C@H](O)CN1C[C@H]2CCCC[C@H]2C[C@H]1C(=O)NC(C)(C)C [Nelfinavir]
- decrease of AUC by rifampin ([7]; human, in vivo): ~ 80%

SMILES: Cc1ccnc2c1NC(=O)c1cccnc1N2C1CC1 [Nevirapine]
- decrease of nevirapine concentrations by rifampin ([7]; in vivo): ~ 40%

SMILES: O=c1[nH]cnc2c1ncn2[C@H]1CC[C@@H](CO)O1 [ddI]
- Potential for Clinically Significant Interaction [6]: Low
- Principal Route(s) of Elimination [5]: Tubular secretion

Now from value to compound, other results behind:

- CLPO (oral clearance) [2]: 12.7 (6.1-23.7) L/h
- effect on apparent terminal half-life ([2]; po): not significantly affected by ritonavir
- CL/F (clinical [3]): 468 mL/min
SMILES: CCC[C@@]1(CCc2ccccc2)CC(O)=C([C@H](CC)c2cccc(NS(=O)(=O)c3ccc(C(F)(F)F)cn3)c2)C(=O)O1 (relative stereo) [Tipranavir, [R-(R*,R*)]-N-[3-[1-[5,6-Dihydro-4-hydroxy-2-oxo-6-(2-phenylethyl)-6-propyl-2H-pyran-3-yl]propyl]phenyl]-5-(trifluoromethyl)-2-pyridinesulfonamide]
- effect on elimination half-life (t1/2) [1]: not accompanied by a prolongation of the elimination half-life
- IC90 (HIV): 1 µM
- enzyme induction by tipranavir (CYP3A [4]): induces its own metabolism over a wide dosage range; also recorded: enzyme inducer

- Potential for Clinically Significant Interaction [6]: High (and unfavorable)
SMILES: CC(C)CN(C[C@@H](O)[C@H](Cc1ccccc1)NC(=O)O[C@H]1CCOC1)S(=O)(=O)c1ccc(N)cc1 [Amprenavir]
- decrease of AUC by rifampin ([7]; Table 1, protease inhibitors): ~ 80%
- Principal Route(s) of Elimination [5]: CYP3A

- CLPO (oral clearance) [10]: 5.18 (1.5-7.8) L/h
SMILES: CC(C)Nc1cccnc1N1CCN(C(=O)c2cc3cc(NS(C)(=O)=O)ccc3[nH]2)CC1 [Delavirdine]
- inhibition of CYP3A in vitro (CYP3A [8]): non-competitively inhibit CYP3A
- delavirdine clearance with rifabutin or rifampin ([7]; coadministration of either rifabutin or rifampin): marked increase in delavirdine clearance
- inhibition of CYP3A [9]: inhibits cytochrome P450 monooxygenase (CYP3A)
- inhibition of CYP3A in vivo (CYP3A [11]): rapid and significant inhibition of CYP3A

- effect of tipranavir on blood levels of ritonavir ([13]; Examples 1 and 2): lower blood levels of ritonavir
- ritonavir concentrations ([13]; co-administration of lowest tipranavir dose tested (600 mg BID)): significantly and substantially declined
- effect on elimination half-life ([13]; human, in vivo): shortening of the elimination hall-life
- decrease in steady-state plasma ritonavir concentrations ([13]; ritonavir 500 mg BID with tipranavir 600 or 900 mg BID vs ritonavir alone): ~4 -fold
- CL/F (clinical [14]; human, in vivo, po): 85 mL/min
- CLPO (oral clearance) (clinical [14]; human, in vivo, po): 5.1 (3.9-7.8) L/h
- Tmax (clinical [14]; human, in vivo, po): 3.0 (1.0-4.0) h
- half-life (clinical [14]; human, plasma, po, 500 mg): 2.9 h
- decrease in mean steady-state ritonavir concentrations (clinical [14]; ritonavir 500 mg BID with tipranavir 1350 mg BID vs alone): ~5 -fold
- decrease of median ritonavir AUC [15, 17]: 12 -fold
- decrease of median ritonavir Cmax [15, 17]: 10 -fold
- decrease of median ritonavir Cmin [15, 17]: 54 -fold
- ritonavir concentrations in the presence of tipranavir ([15]; presence of tipranavir): greatly decreased
SMILES: CC(C)c1nc(CN(C)C(=O)N[C@H](C(=O)N[C@@H](Cc2ccccc2)C[C@H](O)[C@H](Cc2ccccc2)NC(=O)OCc2cncs2)C(C)C)cs1 [Ritonavir, (2S,3S,5S)-5(N-(N-((N-Methyl-N-((2-isopropyl-4-thiazoly)methyl)amino)carbonyl)-L-valinyl)amino)-2-(N-((5-thiazoly)methoxycarbonyl)amino)-1,6-diphenyl-3-hydroxhexane]
- effect on apparent half-life of elimination (clinical [14]; human, in vivo): shorter apparent half-life of elimination
- plasma ritonavir concentrations vs reported values (clinical [14]; ritonavir 500 mg BID alone): slightly higher than those reported in HIV-infected patients receiving ritonavir 600 mg doses twice daily
- plasma ritonavir concentrations vs published values (clinical [14]; ritonavir 500 mg BID with tipranavir): lower than published values for ritonavir 300 mg doses administered twice daily to HIV-infected patients
- effect on apparent elimination half-life [16]: decreased relative to ritonavir given alone

- Potential for Clinically Significant Interaction [6]: High (and unfavorable)
SMILES: CC(C)(C)NC(=O)[C@@H]1C[C@@H]2CCCC[C@@H]2CN1C[C@@H](O)[C@H](Cc1ccccc1)NC(=O)[C@H](CC(N)=O)NC(=O)c1ccc2ccccc2n1 [Saquinavir]
- decrease of AUC by rifampin ([7]; human, in vivo): ~ 80%
